We go through five compounds from patent US7553866B2, “Thiolactones” (Eisai Corporation of North America, priority 2003, dated 2009).

Data set [1] deals with C57/BL mice. Kind of data set: animal or person. The data set is classed as in vivo. The conditions noted are these: for ED50: Mus musculus, sc. Here is the method: (§1) Male C57/BL mice (IMP, Lodz, Poland), 22-24 g of body weight were group-housed in the standard laboratory cages and kept in a temperature-controlled colony room (21±2° C.) with a 12-hour light/dark cycle (light on: 07:00, off: 19:00). Commercial food and tap water were available ad libitum. Each experimental group consisted of 7-28 mice per treatment. All mice were used only once.
(§2) The intensity of the heat stimulus was adjusted so that the baseline tail-flick latency was ˜3 seconds. […] Each response assessment consisted of two separate measurements taken at different portions of the tail (spaced by 1.5-2 cm) and separated by 15 seconds. The mean of these responses was used for subsequent comparisons.

For data set [2], the system named is C57/BL mice. The data set can be described thus: Acute effects in the tail-flick test (Experiment 2). Format: in vivo. As to the method: as §1, §2
The N is given in brackets. Presented in FIG. 5 are mean±S.E.M. Area Under Curve (AUC) values calculated on the same data.
Background: In hot-plate and tail-flick tests a longer latency is read as antinociception.

In data set [3] the test system is BB/W rats. The data set can be described thus: Retinal disorder (diabetic retinopathy) in BB/W rats: BM thickness and E/P ratio after 6 months of daily treatment. The data set is classed as in vivo, rat. The conditions noted are these: for BM THICKNESS (nm) ± SD: retinal capillaries. As to the method:
Four groups of rats received daily insulin injections to maintain their glucose levels at about 350 mg/dl. Starting at the onset of hyperglycemia, NAALADase inhibitor 2-(3-sulfanylpropyl)-pentanedioic acid (Compound B) was administered daily for 6 months to one group of BB/W rats at a dose of 10 mg/kg and to a second group of BB/W rats at a dose of 30 mg/kg. A third group of BB/W rats and a fourth group of non-diabetic rats received daily vehicle treatment (50 mM Hepes buffered saline).
After 6 months of treatment with Compound B or vehicle treatment, the rats were sacrificed and their eyes were removed. From each rat, one eye was processed for elastase digest while the other eye was processed for transmission electron microscopy (TEM) and basement membrane (BM) thickness.
Retinal digests were prepared using elastase on retinas as described in Layer, N., Invest Ophthalmol Vis Sci (1993) 34:2097. Eyes were removed from recently killed BB/W rats (n=30) and age-matched transgenic controls (n=12). The retinas (n=12) were fixed at room temperature by immersing the whole eye (slit at limbus) in 4% (w/v) paraformaldehyde in 50 mmol/L Na—K phosphate buffer with 8% sucrose. The fixed retinas were rinsed in deionized water and were incubated for 3 minutes in a 37° C. agitating water bath in 40 units/mL elastase in Na—K phosphate buffer with 150 mmol/L NaCl and 5 mmol/L ethylenediamine tetraacetic acid (EDTA), pH 6.5. The tissues were washed overnight in 100 mmol/L Tris-HCL (pH 8.5) and then transferred to deionized water for removal of the loosened vitreous and digested neural elements by gentle agitation using the sides of closed forceps and the sides and ends of very fine brushes. After all loose tissues were removed, the retinas were incubated once more in fresh enzyme for 3 minutes and then subjected to a second overnight wash at room temperature in Tns-HCl buffer. On the third day, the retinas were again transferred to deionized water for additional removal of digested neural elements. The vascular network that was completely free of nonvascular elements was mounted flat by flotation in Ca^2+ and Mg^2+ free Dulbecco's Phosphate-Buffered Saline (PBS) on siliconized slides (#S1308, Oncor, Gaithersburg, Md.). After air drying in a dust free environment, the mounts of the retinal microvasculature were stained using periodic acid Schiff reaction and hematoxylin counterstaining, as described in Luna, L., ed. Manual of Histologic Staining Methods of the Armed Forces Institute of Pathology (1968) McGraw-Hill, New York, N.Y. The preparations were then examined by light microscopy and photographed.
The stained and intact retinal whole mounts were coded and counted, as described in Cuthbertson, R., Invest Ophthalmol Vis Sci. (1986) 27:1659-1664).
Ten fields at ×100 magnification were counted for endothelial and pericyte cells using previously described morphologic criteria (see Kuwabara, T., Arch Ophthalmol. (1960) 64:904-911). In every sample, at least 200 cells were counted from the mid zone of the retina. Mean values for endothelial cell/pericyte (E/P) ratios were initially calculated in 3 retinas from each of the 4 groups of rats.
Each eye was fixed in 4% glutaraldehyde and dissected free of sclera and choroids, then trimmed and postfixed in 1% osmium tetroxide. After dehydration and embedding, thin sections were stained with uranyl acetate and lead citrate. Initially, BM thickness of retinal capillaries from 3 non-diabetic rats receiving vehicle, 3 diabetic animals receiving 10 mg/kg Compound B, and 3 diabetic rats receiving 30 mg/kg Compound B were compared with 3 diabetic rats receiving a vehicle. At least 10 capillaries per eye from the inner nuclear and plexiform layers were photographed at a magnification of 10,000×. Exact magnification was determined for each set of negatives with a 28,800 line/inch calibration grid. Negatives were enlarged 3×. […]

Data set [4] concerns Brown Norway rats (Rattus norvegicus). The data set can be described thus: Experimental rat glaucoma (unilateral IOP elevation), optic nerve fiber counting. Format: in vivo. As to conditions: 10 mg/kg i.p. daily; for Fiber Number: glaucoma eye optic nerve; for Percent Difference (fiber number, glaucoma vs normal eye): positive value = fewer fibers in glaucoma eye. As to the method:
(§3) All experiments complied with the Association for Research in Vision and Ophthalmology Statement for the Use of Animals in Ophthalmic and Vision Research. 82 male Brown Norway rats (Rattus norvegicus), each weighing approximately 250 gm, were treated using procedures approved by the Animal Care Committee of the Johns Hopkins University School of Medicine. The rats were housed with a 12 hour light/12 hour dark cycle and fed ad libitum.
Unilateral elevation of intraocular pressure (“IOP”) was produced in 56 rats by microinjection of hypertonic saline into episcleral veins, following procedures described in Morrison, J. et al., IOVS (March 1998) 39:526-531. Beginning on the day of IOP elevation, the rats were treated daily with intraperitoneal injections of either a vehicle (23 rats with 50 mM HEPES-buffered saline) or a NAALADase inhibitor (11 rats with 10 mg/kg of Compound A and 22 rats with 10 mg/kg of Compound B). 11 saline treated rats, 11 Compound A treated rats and 11 Compound B treated rats were sacrificed at 8 weeks, and the remaining rats at 12 weeks, after initial IOP elevation.
(§4) The rats were sacrificed by exsanguination under deep pentobarbital anesthesia. They were perfused through the heart with 2% paraformaldehyde/2% glutaraldehyde in 0.1 M phosphate buffer, pH 7.2, and the eyes with attached optic nerves were removed. Cross-sections of the optic nerves from both experimental (glaucoma or transection) and control eyes was removed 1.5 mm posterior to the globe, 1 mm in thickness, and post-fixed in 2% osmium tetroxide in buffer. These were processed into epoxy resin, sectioned at 1 micron and stained with toluidine blue.
The area of each optic nerve cross-section was measured by outlining its outer border at 10× magnification on an image analysis system (Universal Imaging Corp., Westchester, Pa.) with Synsys digital camera and Metamorph software. Three area measurements were taken and the mean value was determined. To measure the density and fiber diameter distributions, images were captured with a 100× phase contrast objective from 10 different areas of each nerve. These were edited to eliminate non-neural objects and the size of each axon internal to the myelin sheath (its minimum diameter) and the density of axons/square mm were calculated for each image and nerve. The mean density was multiplied by total nerve area to yield fiber number for each nerve. The total fiber number in glaucoma or transection nerves was compared to the normal, fellow eye of each rat to yield a percent loss value. The number of axons counted among the 10 images was approximately 20% of the 80-90,000 axons in normal rat nerves. The person measuring the number of axons was masked to the protocol conducted on the nerves. […]

Data set [5] shares this test system. Kind of data set: Optic nerve transection in rats, optic nerve fiber counting. The data set is classed as in vivo. The conditions noted are these: for Fiber Number / Percent Difference (fiber number, transected vs normal eye): 10 mg/kg i.p. daily. As to the method: as §3
The optic nerve was transected unilaterally in 26 rats under intraperitoneal pentobarbital anesthesia. The conjunctiva was opened with scissors and the optic nerve was exposed by traction on extraocular muscles. The transection was performed with microscissors 5 mm posterior to the globe, with specific attention to avoidance of injury to major ocular blood vessels. Immediately after transection, the retina was examined ophthalmoscopically to assure that the retinal arterial blood supply was not disrupted. The conjunctiva was closed with absorbable suture and the eye dressed with antibiotic ointment. Beginning on the day of transection, the rats were treated daily with intraperitoneal injections of either a vehicle (9 rats with 50 mM HEPES-buffered saline) or a NAALADase inhibitor (8 rats with 10 mg/kg of Compound A and 9 rats with 10 mg/kg of Compound B). 5 saline treated rats, 3 Compound A treated rats and 4 Compound B treated rats were sacrificed at 2 weeks, and the remaining rats at 4 weeks, after transection.
as §4
The area of each optic nerve cross-section was measured by outlining its outer border at 10× magnification on an image analysis system (Universal Imaging Corp., Westchester, Pa.) with Synsys digital camera and Metamorph software. Three area measurements were taken and the mean value was determined. To measure the density and fiber diameter distributions, images were captured with a 100× phase contrast objective from 10 different areas of each nerve. These were edited to eliminate non-neural objects and the size of each axon internal to the myelin sheath (its minimum diameter) and the density of axons/square mm were calculated for each image and nerve. The mean density was multiplied by total nerve area to yield fiber number for each nerve. The total fiber number in glaucoma or transection nerves was compared to the normal, fellow eye of each rat to yield a percent loss value. The number of axons counted among the 10 images was approximately 20% of the 80-90,000 axons in normal rat nerves. The person measuring the number of axons was masked to the protocol conducted on the nerves.
Percent Difference=mean percent difference in fiber number between glaucoma and normal eye in each rat (positive value indicates fewer fibers in the glaucoma eye).

In data set [6] the test system is NAALADase. As to conditions: NAAG as substrate of NAALADase; cited from earlier work.
Setting [7] is: diabetic BB/W rats, 10 mg/kg daily for 6 months, 10 mg/kg.
Where [8] appears, read: diabetic BB/W rats, 10 mg/kg daily for 6 months, listed as NAALADASE INHIBITOR, 10 mg/kg.
Setting [9] is: diabetic BB/W rats, 30 mg/kg daily for 6 months, 30 mg/kg.
Setting [10] is: diabetic BB/W rats, 30 mg/kg daily for 6 months, listed as NAAALADASE INHIBITOR, 30 mg/kg.
Where [11] appears, read: high dose 30 mg/kg, vs diabetic vehicle.
Setting [12] is: low dose 10 mg/kg, vs diabetic vehicle.
Where [13] appears, read: 2 weeks survival after transection.
[14] abbreviates: 4 weeks survival after transection.

Entries after “also recorded” stand apart in the source; their conditions may differ. Marks after values point to notes of the source that are not given here. Peptide text beside a SMILES is read from it.

As to `O=C(O)CCC(CP(=O)(O)O)C(=O)O` (stereo not drawn) [Compound 2-PMPA, 2-(phosphonomethyl)pentanedioic acid], the “effect on development of morphine tolerance” value in data set [1] (50 or 100 mg/kg of 2-PMPA prior to each dose of morphine) is listed as “attenuated the development of morphine tolerance”. Moreover, in data set [2] (100 mg/kg 2-PMPA i.p. 30 min before 1.5 or 3 mg/kg morphine s.c.), the “effect on antinociceptive effects of morphine” value is on record as “did not affect antinociceptive effects; also recorded: did not differ”. Also, the “tail-flick responses (AUC) compared to placebo+placebo treatment” value in data set [2] (100 mg/kg of 2-PMPA i.p. + placebo) is recorded as “did not affect tail-flick responses; also recorded: did not differ from placebo+placebo treatment”.

For the compound `O=C(O)CCC(CCCS)C(=O)O` (stereo not drawn) [Compound B, 2-(3-sulfanylpropyl)pentanedioic acid], the “BM THICKNESS (nm) ± SD” value in data set [3] (setting [7]) is 82.3±4.07 nm; in data set [3] (setting [8]) it was 82.3 ± 4.07 nm; in data set [3] (setting [9]), 71.7±4.07 nm; in data set [3] (setting [10]), 71.7 ± 4.07 nm. Moreover, the “E/P RATIO (endothelial cell/pericyte)” value in data set [3] (setting [7]) is recorded as 2.5±0.5; in data set [3] (setting [8]), 2.5 ± 0.5; in data set [3] (setting [9]), 2.0±0.9; in data set [3] (setting [10]), 2.0 ± 0.4. Also, the “effect on body weight” value in data set [3] (diabetic BB/W rats, 6 months of treatment) is “no effect”. In addition, the “reduction in BM thickness” value in data set [3] (setting [11]) is listed as 29.0%. Also, the entries for the “reduction of endothelial cell to pericyte ratios” value in data set [3] (setting [11]) and in data set [3] (setting [12]) were 33.0% and 16.7%, respectively. Also, in data set [3] (setting [12]), the “decrease in BM thickness” value worked out at 18.5%. For the same compound, the “Fiber Number” value in data set [4] (8 week group) was 80785 ± 2121**; in data set [4] (12 week group), 90504 ± 1718; in data set [5] (setting [13]) it was 19,550 ± 11,383; in data set [5] (setting [14]), 5,162 ± 5,017. Further, the “Percent Difference (fiber number, glaucoma vs normal eye)” value in data set [4] (8 week group) is recorded as −0.82 ± 2.97%; in data set [4] (12 week group) it was −3.21 ± 2.86%. The “remaining axons relative to saline-treated rats” value in data set [5] (2 weeks after transection) is “twice”. Further, the “Percent Difference (fiber number, transected vs normal eye)” value in data set [5] (setting [13]) is listed as 75.3 ± 14.8%; in data set [5] (setting [14]) it was 93.4 ± 6.2%.

As to `CC12CC3CC(C)(C1)CC(N)(C3)C2` [Memantine, memantine], the “effect on development of morphine tolerance” value in data set [1] (mouse, in vivo) is “attenuated the development of morphine tolerance; also recorded: produced an inhibition of morphine tolerance”.

On to `CN1CC[C@]23c4c5ccc(O)c4O[C@H]2[C@@H](O)C=C[C@H]3[C@H]1C5` [Morphine, morphine], for which the ED50 in data set [1] (24 h, read-out: Test #1 ED50 (morphine antinociceptive potency)) came out at 1.49 ± 0.26 mg/kg; in data set [1] (read-out: Test #2 ED50 (morphine antinociceptive potency)) it was 8.85 ± 2.22 mg/kg; in data set [2] (Mus musculus, sc, read-out: antinociceptive ED50 dose), 3 mg/kg.

With `CC(=O)N[C@@H](CC(=O)O)C(=O)N[C@@H](CCC(=O)O)C(=O)O` [NAAG, N-acetyl-aspartyl-glutamate] (Ac-Asp-Glu-OH), the Km in data set [6] is 0.54 µM.

What is called ED50 is the midpoint of the dose-response relation. For orientation: Km means the concentration of substrate that gives half-maximal velocity.
